Results published in patent publication US12679878B2, “CRF2 receptor agonists and their use in therapy” (SANOFI, priority 2020, dated 2026).
Starred links: 1 amine or outer side, 2 acyl side, 3 side chain; linkers in the order of their positions; H or OH if unused. Residues, ends and D or L forms follow the SMILES beside them. Groups on a side chain read outwards from the residue. No end group written: not given here. *: point of attachment. C18 diacid = O=C(O)CCCCCCCCCCCCCCCCC(=O)*; γGlu = O=C(O)[C@H](CCC(=O)[*:2])N[*:1]; Palmitoyl = CCCCCCCCCCCCCCCC(=O)*; AEEA = NCCOCCOCC(=O)O

T1: recombinant human CRF2 (HEK cell membranes) (human, UniProt Q13324 1-411)
T1 construct: Whole receptor in membranes prepared from HEK cells; also called CRF2a (h); CRF2 receptor
T1 sequence (looked up): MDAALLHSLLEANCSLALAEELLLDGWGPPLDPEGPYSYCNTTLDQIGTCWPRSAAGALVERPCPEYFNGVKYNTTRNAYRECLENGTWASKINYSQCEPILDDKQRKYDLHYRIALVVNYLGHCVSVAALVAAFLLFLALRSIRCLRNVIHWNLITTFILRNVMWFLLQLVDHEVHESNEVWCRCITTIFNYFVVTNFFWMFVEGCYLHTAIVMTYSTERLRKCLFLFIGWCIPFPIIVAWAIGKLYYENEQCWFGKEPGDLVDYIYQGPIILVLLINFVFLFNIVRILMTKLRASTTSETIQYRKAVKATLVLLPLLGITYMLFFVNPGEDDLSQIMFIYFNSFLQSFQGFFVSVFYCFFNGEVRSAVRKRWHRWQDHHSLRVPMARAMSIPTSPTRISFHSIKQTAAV

T2: anti-target CRF1R receptor (UniProt P34998 24-415, limits assumed)
T2 sequence (looked up): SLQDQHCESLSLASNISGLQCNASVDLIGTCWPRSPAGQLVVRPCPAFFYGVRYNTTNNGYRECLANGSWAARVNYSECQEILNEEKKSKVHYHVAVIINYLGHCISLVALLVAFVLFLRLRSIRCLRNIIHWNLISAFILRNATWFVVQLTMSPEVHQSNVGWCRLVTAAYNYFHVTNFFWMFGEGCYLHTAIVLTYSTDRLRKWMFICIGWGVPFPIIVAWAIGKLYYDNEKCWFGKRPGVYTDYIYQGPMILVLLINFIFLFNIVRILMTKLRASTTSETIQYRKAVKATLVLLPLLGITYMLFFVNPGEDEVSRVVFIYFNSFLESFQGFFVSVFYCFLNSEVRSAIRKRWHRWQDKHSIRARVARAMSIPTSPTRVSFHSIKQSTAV


Columns and labels:
[1] = Effect on blood pressure, telemetry (Example 17); assay type: in vivo; details: Sprague Dawley rats, 0.1 mg/kg SC
How it was run: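 Sprague Dawley rats with an aortic-catheter telemetry implant, recovered at least 2 weeks, given compound or vehicle at 0.1 mg/kg SC. HR, SBP, DBP and MBP recorded continuously for 48 h. Each 4-hour post-dose mean was compared with a 1-hour pre-dose basal mean.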

[2] = Effect on body mass, body fat content and food intake in high-fat diet fed (DIO) mice (Example 18); assay type: in vivo, C57BL/6N Crl mice
Procedure: The peptide of SEQ ID NO: 35 was assessed for its ability to reduce body mass and body fat content in mice. Its efficacy was compared with that of a reference compound, namely the compound of Example 4 of WO2018013803 (Alsina-Fernandez; Eli Lilly and Company), referred to herein as “Compound A”.
Female C57BL/6N Crl mice were group housed under vivarium conditions that included a 12 h light/dark cycle and a room temperature of 23±1° C. All animals had free access to water and diet (Ssniff adjusted high fat diet: TD.97366, Soest, Germany) for 18 weeks prior to pharmacological intervention (dosing phase). After the pre-feeding period, mice were single housed and randomized according to body weight to treatment groups with n=8, so that each group has similar mean body weight. At the start of the study, mice were between 25-26 weeks old with body weight of 42-50 g. Mice were treated every second day during late afternoon hours prior lights off with a subcutaneous injection of 8 nmol/kg of the test compounds or their vehicle (phosphate-buffered saline (PBS). Body weight and food intake were measured daily throughout the dosing phase while body fat content was measured at day 0 prior to the start of treatment and at day 15. The study was terminated on day 15.
For statistical analyses a One-Way Analysis of Variance (ANOVA) was performed with SigmaStat 3.5. The test was performed with a risk alpha of 0.050 and a comparison versus the high fat diet-Vehicle group was performed with Dunnett's tests.

[3] = target: T1, recombinant human CRF2 (HEK cell …); experiment: Hill coefficient of the competition curve against [125]sauvagine, HEK membranes with recombinant human CRF2
Procedure: (§1) HEK cells expressing recombinant human CRF2 were used as a source of receptor for membrane preparation.
(§2) IC50 values (concentration causing a half-maximal inhibition of control specific binding) and Hill coefficients (nH) were determined by non-linear regression analysis of the competition curves generated with mean replicate values using Hill equation curve fitting. The inhibition constants (Ki) were calculated using the Cheng Prusoff equation [Ki=IC50/(1+L/KD) where L is the concentration of radioligand in the assay, and KD is the affinity of the radioligand for the receptor). A Scatchard plot was used to determine the KD.

[4] = target: T1, recombinant human CRF2 (HEK cell …); experiment: radioligand competition against [125]sauvagine (0.1 nM), HEK membranes with recombinant human CRF2; Cheng Prusoff
Procedure: as §1, §2

rat CRF2R α receptor = rat CRF2R α receptor (rat, UniProt P47866 20-411); experiment: cell-based or functional assay
[5] = target: T2, anti-target CRF1R receptor; experiment: cell-based or functional assay

| nH [3] | Ki [4] | EC50 [nM], 0% HSA (cAMP, A7R5 cells) (rat CRF2R α receptor) | EC50[nM] 0% HSA (cAMP, CRF1R-overexpression CHO cells) [5] | Emax (%) (cAMP, CRF1R-overexpression CHO cells) [5] | Molecule | Duration (h): last time point for which a significant effect on BP was still seen [1] | Effect on Systolic Pressure % change from baseline 8 h ([1]; 8 h) | Effect on Systolic Pressure % change from baseline 24 h ([1]; 24 h) | cumulative food intake over 15 days ([2]; 8 nmol/kg s.c. every second day) | lean mass change ([2]; 8 nmol/kg s.c. every second day, 15 days) | relative body weight change ([2]; 8 nmol/kg s.c. every second day, 15 days, mean±SEM) | reduction in body fat content ([2]; 8 nmol/kg s.c. every second day, day 15 vs day 0) | food intake after first administration ([2]; 8 nmol/kg s.c., normalized after second treatment (FIG. 1)) |
| --- | --- | --- | --- | --- | --- | --- | --- | --- | --- | --- | --- | --- | --- |
| – | – | – | – | – | CC[C@H](C)[C@H](N)C(=O)N[C@H](C(=O)N[C@@H](CC(C)C)C(=O)N[C@@H](CO)C(=O)N[C@@H](CC(C)C)C(=O)N[C@@H](CC(=O)O)C(=O)N[C@H](C(=O)N1CCC[C@H]1C(=O)N[C@H](C(=O)N[C@@H](CCCCN)C(=O)N[C@@H](CC(C)C)C(=O)N[C@@H](CCCCNC(=O)COCCOCCNC(=O)COCCOCCNC(=O)CC[C@H](NC(=O)CCCCCCCCCCCCCCCCC(=O)O)C(=O)O)C(=O)N[C@@H](CCCCN)C(=O)N[C@H](C(=O)N[C@@H](CC(C)C)C(=O)N[C@@H](CC(C)C)C(=O)N[C@@H](CCC(=O)O)C(=O)N[C@@H](CCC(N)=O)C(=O)N[C@@H](CCC(=O)O)C(=O)N[C@@H](CCCCN)C(=O)N[C@@H](CCC(N)=O)C(=O)N[C@@H](CCCCN)C(=O)N[C@@H](CCCCN)C(=O)N[C@@H](CCC(N)=O)C(=O)N[C@@H](CCCNC(=N)N)C(=O)N[C@@H](CCC(=O)O)C(=O)N[C@@H](CCC(N)=O)C(=O)N[C@@H](C)C(=O)N[C@@H](CCC(=O)O)C(=O)N[C@H](C(=O)N[C@@H](CC(N)=O)C(=O)N[C@@H](CCCCN)C(=O)N[C@@H](CCC(N)=O)C(=O)N[C@H](C(=O)N[C@@H](CC(C)C)C(=O)N[C@@H](C)C(=O)N[C@@H](CCC(N)=O)C(=O)N[C@H](C(N)=O)C(C)C)[C@@H](C)CC)[C@@H](C)O)[C@@H](C)CC)[C@@H](C)CC)C(C)C)C(C)C [SEQ ID NO: 35] (H-IVLSLDVPIKLK([AEEA-AEEA-γGlu-C18 diacid])KILLEQEKQKKQREQAETNKQILAQV-NH2) | 30 h | −14.1% | −5.0% | 39.3 ± 2.5 g | −6.3±1.7% | −10.8±1.4% | −34.2±2.9% | meaningful reduction of food intake |
| 1.5 | 4.4 nM | – | – | – | IVLSLDVPIKLK([γGlu-Palmitoyl])KILLEQEKQKKQREQAETNKQILAQV-NH2 (N-terminus assumed; SMILES CCCCCCCCCCCCCCCC(=O)N[C@@H](CCC(=O)NCCCC[C@H](NC(=O)[C@H](CC(C)C)NC(=O)[C@H](CCCCN)NC(=O)[C@@H](NC(=O)[C@@H]1CCCN1C(=O)[C@@H](NC(=O)[C@H](CC(=O)O)NC(=O)[C@H](CC(C)C)NC(=O)[C@H](CO)NC(=O)[C@H](CC(C)C)NC(=O)[C@@H](NC(=O)[C@@H](N)[C@@H](C)CC)C(C)C)C(C)C)[C@@H](C)CC)C(=O)N[C@@H](CCCCN)C(=O)N[C@H](C(=O)N[C@@H](CC(C)C)C(=O)N[C@@H](CC(C)C)C(=O)N[C@@H](CCC(=O)O)C(=O)N[C@@H](CCC(N)=O)C(=O)N[C@@H](CCC(=O)O)C(=O)N[C@@H](CCCCN)C(=O)N[C@@H](CCC(N)=O)C(=O)N[C@@H](CCCCN)C(=O)N[C@@H](CCCCN)C(=O)N[C@@H](CCC(N)=O)C(=O)N[C@@H](CCCNC(=N)N)C(=O)N[C@@H](CCC(=O)O)C(=O)N[C@@H](CCC(N)=O)C(=O)N[C@@H](C)C(=O)N[C@@H](CCC(=O)O)C(=O)N[C@H](C(=O)N[C@@H](CC(N)=O)C(=O)N[C@@H](CCCCN)C(=O)N[C@@H](CCC(N)=O)C(=O)N[C@H](C(=O)N[C@@H](CC(C)C)C(=O)N[C@@H](C)C(=O)N[C@@H](CCC(N)=O)C(=O)N[C@H](C(N)=O)C(C)C)[C@@H](C)CC)[C@@H](C)O)[C@@H](C)CC)C(=O)O) [peptide of SEQ ID NO: 17] | – | – | – | – | – | – | – | – |
| 0.8 | 5.4 nM | 1.74 nM | > 1000 nM | 12.3% | IVLSLDVPIKLK([AEEA-AEEA-γGlu-C18 diacid])QILLEQERQKKQREQAETNKQILAQV-NH2 (N-terminus assumed; SMILES CC[C@H](C)[C@H](N)C(=O)N[C@H](C(=O)N[C@@H](CC(C)C)C(=O)N[C@@H](CO)C(=O)N[C@@H](CC(C)C)C(=O)N[C@@H](CC(=O)O)C(=O)N[C@H](C(=O)N1CCC[C@H]1C(=O)N[C@H](C(=O)N[C@@H](CCCCN)C(=O)N[C@@H](CC(C)C)C(=O)N[C@@H](CCCCNC(=O)COCCOCCNC(=O)COCCOCCNC(=O)CC[C@H](NC(=O)CCCCCCCCCCCCCCCCC(=O)O)C(=O)O)C(=O)N[C@@H](CCC(N)=O)C(=O)N[C@H](C(=O)N[C@@H](CC(C)C)C(=O)N[C@@H](CC(C)C)C(=O)N[C@@H](CCC(=O)O)C(=O)N[C@@H](CCC(N)=O)C(=O)N[C@@H](CCC(=O)O)C(=O)N[C@@H](CCCNC(=N)N)C(=O)N[C@@H](CCC(N)=O)C(=O)N[C@@H](CCCCN)C(=O)N[C@@H](CCCCN)C(=O)N[C@@H](CCC(N)=O)C(=O)N[C@@H](CCCNC(=N)N)C(=O)N[C@@H](CCC(=O)O)C(=O)N[C@@H](CCC(N)=O)C(=O)N[C@@H](C)C(=O)N[C@@H](CCC(=O)O)C(=O)N[C@H](C(=O)N[C@@H](CC(N)=O)C(=O)N[C@@H](CCCCN)C(=O)N[C@@H](CCC(N)=O)C(=O)N[C@H](C(=O)N[C@@H](CC(C)C)C(=O)N[C@@H](C)C(=O)N[C@@H](CCC(N)=O)C(=O)N[C@H](C(N)=O)C(C)C)[C@@H](C)CC)[C@@H](C)O)[C@@H](C)CC)[C@@H](C)CC)C(C)C)C(C)C) [peptide of SEQ ID NO: 68] | – | – | – | – | – | – | – | – |
